Source: patent US20080318970A1, “Treatment of Infectious Diseases” (priority 2004, published 2008)
pEC50: −log10 of the molar value.

Experiments:
[1] = Cytotoxic effect in uninfected MT4 cultures; assay type: cell-based; details: human, uninfected MT4 cells; compound alone; uninfected MT4
Description: (§1) Compounds were examined for possible antiviral activity against strain 111B of HIV-1 using MT4 cells as target cells. MT4 cells were incubated with virus (0.005 MOI) and growth medium containing the test dilutions of compound(s) for six days in parallel with virus-infected and uninfected control cultures without compound added. Expression of HIV in the cultures was indirectly quantified using the MTT assay as previously described. Compounds mediating less than 30% reduction of HIV expression were considered without biological activity. Compounds were tested in parallel for cytotoxic effect in uninfected MT4 cultures containing the test dilutions of compound as described above. Cultures for test of both antiviral activity and cytotoxic effect were set up in tripleduplicates, […] per culture in micro titre plates.
CC50 is defined as the inhibitory concentration that reduces cellular growth or viability of uninfected cells by 50%.

HIV-1 strain HTLV-IIIB = experiment: Inhibition of HIV-1 replication in MT4 cells (MTT assay); assay type: cell-based; details: Human immunodeficiency virus 1, IIIB, 144 h; compound alone; MT4 cells, six days
Description: Each experiment was repeated in tripleduplicate. MIC values represent the mean values of two separate experiments.
The HIV-1 strain HTLV-IIIB were propagated in H9 cells at 37° C., 5% CO2 using RPMI 1640 with 10% heat-inactivated foetal calf serum (FCS) and antibiotics (growth medium). Culture supernatant was filtered ([…]), aliquotted, and stored at −80° C. until use. The HIV-1 strain was obtained from NIH AIDS Research and Reference Program.
as §1
The 50% inhibitory concentration was determined by interpolation from the plots of percent inhibition versus concentration of compound.
EC50 is defined as the effective concentration that inhibits 50% of viral production, 50% of viral infectivity, or 50% of the virus-induced cytopathic effect.

Question: For `Cc1cn([C@H]2C[C@H](N=[N+]=[N-])[C@@H](CO)O2)c(=O)[nH]c1=O` [AZT, 3′-Azido-3′-deoxythymidine, reference compound], which CC50 at 6 days [1] is on record?
Answer: > 3000 nM

Question: What about the pEC50 (HIV-1 strain HTLV-IIIB) of the same compound?
Answer: 7.30
